Results on 23 compounds are retold here after US20130303509A1, “NAMPT INHIBITORS” (AbbVie Inc., priority 2012, published 2013).

Experiment [1] has as its system PC3 cells. Kind of experiment: NAMPT Cell Proliferation Assay. In kind it is cell-based. The note with it: Homo sapiens, PC-3, 120 h, 5 days incubation, cell viability by Cell Titer Glo. A digest of the protocol:
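Seeded at 500 cells/well in RPMI with 10% heat-inactivated FBS and left to attach overnight at 37° C, 5% CO2. Compounds were added as 10-fold dilutions […] for 5 days, then viability was read by CellTiter-Glo. IC50s came from sigmoidal fits of percent inhibition.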
A general note: ATP-based viability assays read luminescence as a measure of living cells.

Experiment [2] has as its system activated T cells. The following applies: cited from earlier work.
The conditions of experiment [3]: model of T-cell mediated autoimmune disorders; cited from earlier work.
For experiment [4] the following is noted: collagen induced arthritis; cited from earlier work.

The IC50 is the concentration needed to halve the response being measured. The low end stands for inhibition by little substance, the high end for a need for much substance. Consider `Cc1ccc(N2CC(C(=O)Nc3ccc(C4CCN(C(=O)c5ccccc5F)CC4)cc3)C2)nn1` [Example 851, N-{4-[1-(2-fluorobenzoyl)piperidin-4-yl]phenyl}-1-(6-methylpyridazin-3-yl)azetidine-3-carboxamide], for which the half-maximal inhibitory concentration (IC50) in experiment [1] amounted to 2.75 nM. This lies in the single-digit nanomolar range. Still for that read-out and setting: for `Cc1ccc(N2CC(C(=O)Nc3ccc(C4CCN(C(=O)C(C)(C)C)CC4)cc3)C2)nn1` [Example 852, N-{4-[1-(2,2-dimethylpropanoyl)piperidin-4-yl]phenyl}-1-(6-methylpyridazin-3-yl)azetidine-3-carboxamide] the value was 12.4 nM; for `O=C(Nc1ccc(C2(F)CCN(C(=O)OCc3ccccc3)CC2)cc1)C1CN(c2ccc(Cl)nn2)C1` [Example 853, benzyl 4-[4-({[1-(6-chloropyridazin-3-yl)azetidin-3-yl]carbonyl}amino)phenyl]-4-fluoropiperidine-1-carboxylate], over 10000 nM. Consider `O=C(Nc1ccc(C2(O)CCN(C(=O)OCc3ccccc3)CC2)cc1)C1CN(c2ccc(Cl)nn2)C1` [Example 854, benzyl 4-[4-({[1-(6-chloropyridazin-3-yl)azetidin-3-yl]carbonyl}amino)phenyl]-4-hydroxypiperidine-1-carboxylate], for which the IC50 in experiment [1] is over 10000 nM. Take `O=C(NC1CN(c2cccnn2)C1)c1ccc(C2CCN(C(=O)CCC(F)(F)F)CC2)s1` [Example 855, N-[1-(pyridazin-3-yl)azetidin-3-yl]-5-[1-(4,4,4-trifluorobutanoyl)piperidin-4-yl]thiophene-2-carboxamide]: the half-maximal inhibitory concentration (IC50) in experiment [1] was determined as 747 nM. On the same count and under the same terms, to `O=C(NC1CN(c2cccnn2)C1)c1ccc(C2CCN(C(=O)C3CC3)CC2)s1` [Example 856, 5-[1-(cyclopropylcarbonyl)piperidin-4-yl]-N-[1-(pyridazin-3-yl)azetidin-3-yl]thiophene-2-carboxamide] belongs 729 nM; to `O=C(Nc1ccc(C2(F)CCN(C(=O)c3ccccc3F)CC2)cc1)C1CN(c2cccnn2)C1` [Example 857, N-{4-[4-fluoro-1-(2-fluorobenzoyl)piperidin-4-yl]phenyl}-1-(pyridazin-3-yl)azetidine-3-carboxamide], 2.52 nM; to `CC(C)C(=O)N1CCC(c2ccc(NC(=O)C3CN(c4cccnn4)C3)c(F)c2)CC1` [Example 858, N-{2-fluoro-4-[1-(2-methylpropanoyl)piperidin-4-yl]phenyl}-1-(pyridazin-3-yl)azetidine-3-carboxamide], 4.36 nM. The same measure, in the same setting: to `CC(C)(C)C(=O)N1CCC(c2ccc(NC(=O)C3CN(c4cccnn4)C3)c(F)c2)CC1` [Example 859, N-{4-[1-(2,2-dimethylpropanoyl)piperidin-4-yl]-2-fluorophenyl}-1-(pyridazin-3-yl)azetidine-3-carboxamide] belongs 2.7 nM.

Consider `O=C(Nc1ccc(C2CCN(C(=O)C3CC3)CC2)cc1F)C1CN(c2cccnn2)C1` [Example 860, N-{4-[1-(cyclopropylcarbonyl)piperidin-4-yl]-2-fluorophenyl}-1-(pyridazin-3-yl)azetidine-3-carboxamide], for which, in experiment [1], half-maximal inhibition (IC50) required 10 nM. The compound `CC1(C(=O)N2CCC(c3ccc(NC(=O)C4CN(c5cccnn5)C4)c(F)c3)CC2)CC1` [Example 861, N-(2-fluoro-4-{1-[(1-methylcyclopropyl)carbonyl]piperidin-4-yl}phenyl)-1-(pyridazin-3-yl)azetidine-3-carboxamide] gave a half-maximal inhibitory concentration (IC50) in experiment [1] of 7.58 nM.

`O=C(Nc1ccc(C2CCN(C(=O)CC3CC3)CC2)cc1F)C1CN(c2cccnn2)C1` [Example 862, N-{4-[1-(cyclopropylacetyl)piperidin-4-yl]-2-fluorophenyl}-1-(pyridazin-3-yl)azetidine-3-carboxamide] came in with an IC50 in experiment [1] of 8.49 nM.

In experiment [1], `O=C(Nc1ccc(C2(F)CCN(C(=O)c3ccccc3)CC2)cc1)C1CN(c2cccnn2)C1` [Example 863, N-[4-(1-benzoyl-4-fluoropiperidin-4-yl)phenyl]-1-(pyridazin-3-yl)azetidine-3-carboxamide] had a concentration for half-maximal inhibition (IC50) of 5.67 nM.

In experiment [1], `CC(C)(C)C(=O)N1CCC(F)(c2ccc(NC(=O)C3CN(c4cccnn4)C3)cc2)CC1` [Example 864, N-{4-[1-(2,2-dimethylpropanoyl)-4-fluoropiperidin-4-yl]phenyl}-1-(pyridazin-3-yl)azetidine-3-carboxamide] returned an IC50 of 5.29 nM. Still for that read-out and setting: for `COCCn1nc(C(C)(C)C)cc1-c1ccc(NC(=O)C2CN(c3cccnn3)C2)cc1` [Example 865, N-{4-[3-tert-butyl-1-(2-methoxyethyl)-1H-pyrazol-5-yl]phenyl}-1-(pyridazin-3-yl)azetidine-3-carboxamide] the value was 4.06 nM. The compound `CCCCn1nc(C(C)(C)C)cc1-c1ccc(NC(=O)C2CN(c3cccnn3)C2)cc1` [Example 866, N-[4-(1-butyl-3-tert-butyl-1H-pyrazol-5-yl)phenyl]-1-(pyridazin-3-yl)azetidine-3-carboxamide] displayed an IC50 in experiment [1] of 7.92 nM. With `CC(C)(C)c1cc(-c2ccc(NC(=O)C3CN(c4cccnn4)C3)cc2)n(CC2CCOCC2)n1` [Example 867, N-{4-[3-tert-butyl-1-(tetrahydro-2H-pyran-4-ylmethyl)-1H-pyrazol-5-yl]phenyl}-1-(pyridazin-3-yl)azetidine-3-carboxamide], the half-maximal inhibitory concentration (IC50) in experiment [1] came out at 7.84 nM. Still for that read-out and setting: to `O=C(Nc1ccc(C2CCN(C(=O)c3ccccc3F)CC2)cc1F)C1CN(c2ccnnc2)C1` [Example 868, N-{2-fluoro-4-[1-(2-fluorobenzoyl)piperidin-4-yl]phenyl}-1-(pyridazin-4-yl)azetidine-3-carboxamide] belongs 2.29 nM. Still for that read-out and setting: to `O=C(Nc1ccc(C2CCN(C(=O)c3ccccc3)CC2)cc1F)C1CN(c2ccnnc2)C1` [Example 869, N-[4-(1-benzoylpiperidin-4-yl)-2-fluorophenyl]-1-(pyridazin-4-yl)azetidine-3-carboxamide] belongs 1.98 nM; to `CC(C)(C)C(=O)N1CCC(c2ccc(NC(=O)C3CN(c4ccnnc4)C3)c(F)c2)CC1` [Example 870, N-{4-[1-(2,2-dimethylpropanoyl)piperidin-4-yl]-2-fluorophenyl}-1-(pyridazin-4-yl)azetidine-3-carboxamide], 3.2 nM. In turn, `CC(C)(C)CC(=O)N1CCC(c2ccc(NC(=O)C3CN(c4ccnnc4)C3)c(F)c2)CC1` [Example 871, N-{4-[1-(3,3-dimethylbutanoyl)piperidin-4-yl]-2-fluorophenyl}-1-(pyridazin-4-yl)azetidine-3-carboxamide] came in with an IC50 in experiment [1] of 3.61 nM.

Consider `O=C(Nc1ccc(C2CCN(C(=O)CCC(F)(F)F)CC2)cc1F)C1CN(c2ccnnc2)C1` [Example 872, N-{2-fluoro-4-[1-(4,4,4-trifluorobutanoyl)piperidin-4-yl]phenyl}-1-(pyridazin-4-yl)azetidine-3-carboxamide], for which, in experiment [1], the IC50 amounted to 23.6 nM.

Regarding `O=C(/C=C/c1cccnc1)NCCCCC1CCN(C(=O)c2ccccc2)CC1` [FK866], in experiment [2], the “proliferation and apoptosis of activated T cells” value is “selectively block proliferation and induce apoptosis”. Further, in experiment [3], the “manifestations of experimental autoimmune encephalomyelitis” value is given as “ameliorated the manifestations”. Besides, the “efficacy in animal models of arthritis” value in experiment [4] is listed as “efficacious”.
